Test results reported in patent US20100041756A1, “METHOD OF MODULATING B CELL FUNCTIONING” (priority 2004, published 2010).

What was measured:
[1] = system: DBA/1 mice with established collagen-induced arthritis; experiment: Effect of tranilast on established collagen-induced arthritis (Example 1); assay type: in vivo, mouse; conditions: for Histological score (mean ± SE): 10 days, score 0-3
Experimental: FIG. 1 is a graphical representation of the amelioration of established collagen-induced arthritis (CIA) by intraperitoneal administration of tranilast. DBA/1 mice were immunised with bovine type II collagen in complete Freund's adjuvant in order to induce arthritis. After onset of clinical disease mice were randomly assigned to different treatment groups and given tranilast at 100, 200 or 400 mg/kg/day or vehicle control. Clinical scores were assessed throughout the treatment period using a clinical scoring system described in the Examples. The maximum possible score per mouse is 8. There were 7-10 mice per treatment group.
FIG. 2 is a graphical representation of the amelioration of established CIA by administration of tranilast. DBA/1 mice were immunised with bovine type II collagen in complete Freund's adjuvant in order to induce arthritis. After onset of clinical disease mice were randomly assigned to different treatment groups and given tranilast at 100, 200 or 400 mg/kg/day (i.p.) or vehicle control. Paw-swelling was measured throughout the treatment. There were 7-10 mice per treatment group.
Bovine CII was purified and prepared as previously described (9) and solubilised by stirring overnight at 4° C. in 0.1M acetic acid.
Male DBA/1 mice (7-8 animals/group) were immunised i.d. at 8-12 weeks of age with bovine CII (200 μg/mouse), emulsified in CFA (Difco Laboratories, West Moseley, UK). Beginning at 14 days after immunisation, mice were inspected daily for signs of arthritis and treatment was initiated on day 1 of arthritis. This research was approved by the local Ethical Review Process Committee and by the Home Office of the United Kingdom.
Tranilast was dissolved in 1% NaHCO3 by heating to 70° C. and injected i.p. at 100, 200 or 400 mg/kg/day.
The development of arthritis was assessed daily for the duration of the experiment. The clinical severity of arthritis was graded as follows, 0=normal, 1=slight swelling and/or erythema, 2=pronounced oedematous swelling. Each limb was graded, allowing a maximal clinical score of 8 for each animal. Swelling of hind paws was recorded with a pair of calipers. All clinical evaluations were performed in a blinded manner.
At the end of the treatment period the mice were killed, bled and their joints were processed for histology. The first limb to show clinical evidence of arthritis was removed, fixed, decalcified, and embedded before sectioning and staining with haemotoxylin and eosin. Saggital sections were examined by microscopy in a blinded fashion and joints were graded as follows: 0=normal; 1=mild synovitis without cartilage loss or bone erosion; 2=moderate or severe synovitis with erosions present but normal joint architecture intact; 3=severe synovitis with extensive erosions and normal joint architecture disrupted.
DBA/1 mice were immunised with bovine type II collagen in complete Freund's adjuvant in order to induce arthritis. After onset of clinical disease mice were randomly assigned to different treatment groups and given tranilast at 100, 200 or 400 mg/kg/day (i.p.) or vehicle control. Treatment was continued for 10 days after which time the mice were killed and paws were processed for histology. Joints were graded histologically in a blinded fashion.

[2] = system: B cells activated with LPS; experiment: B cell proliferation, BrdU uptake detected by FACS analysis (Example 2); assay type: cell-based; conditions: Mus musculus, LPS-induced, 100 μg/ml tranilast (FIG. 3), read-out: maximum inhibition of proliferation
Experimental: FIG. 3 is a graphical representation of the inhibition of B cell proliferation by tranilast. B-cells were activated in vitro with LPS, and 1-100 μg/ml tranilast. Proliferation was assessed using BrdU uptake, detected by FACs analysis. LPS induced proliferation in 72% of cells.
B cells were prepared for mouse spleen using rat anti-mouse IgM microbeads and the MACS system.
3 spleens were removed from male DBA/1 mice aged 8-12 weeks. A single cell suspension was prepared by cell-sieve.
Cells were cultured at 1×10^6 cells/ml in 2 ml complete RPMI with glutamine (10% FCS, 1% Pen/Strep, 50 μM 2-Mercaptoethanol, 1 mM Na-Pyruvate) for 48 h in the presence of LPS (20 μg/ml), and 100-25 μg/ml tranilast, or vehicle (DMSO).
20 μM BrdU (Sigma) was added to each well, and incubated overnight.
FACS analysis of staining was performed on the BD LSR Flow Cytometer.

[3] = system: anti-type II collagen IgG1 and IgG2a; experiment: Serum anti-collagen antibody levels in mice with established CIA (ELISA); assay type: in vivo, mouse; conditions: 10 days treatment
Experimental: ELISA plates (Nunc, Uxbridge, UK) were coated with 2 μg/ml of bovine CII dissolved overnight in Tris Buffer (0.05 M Tris, containing 0.2 M NaCl, pH 7.4) blocked with 2% bovine serum albumin (BSA) and then incubated with serial dilutions of test sera. A reference sample was included on each plate. Bound total IgG, IgG1 or IgG2a was detected by incubation with HRP-conjugated sheep anti-mouse IgG, IgG1 or IgG2a, followed by TMB substrate. Optical density was measured at 450 nm.

[4] = system: T cells stimulated with anti-CD3/anti-CD28; experiment: Cytokine production by stimulated T cells in vitro (ELISA); assay type: cell-based, mouse
Experimental: FIG. 10 is a graphical representation depicting that 3,4-DAA and 3-HAA inhibit B and T cell proliferation in vitro. Purified B and T cells were stimulated for 72 h with anti-CD40 (a), or anti-CD3/anti-CD28 (b) respectively, in the presence of varying doses of 3,4-DAA, or 3-HAA.
A single cell suspension was prepared from spleen by mincing through a cell strainer, and erythrocytes were lysed using an ammonium chloride solution (Sigma, St Louis, Mo., USA). B cells were positively enriched by using anti-IgM MACS microbeads, and T cells were positively enriched using anti-CD4 MACS microbeads and the MACS system, according to the manufacturer's guidelines (Miltenyi Biotec, Bergisch Gladbach, Germany). Purity was assessed by flow cytometric analysis (B cell>90% CD19+, T cell>90% CD4+). Cells were cultured at 5×10^5 cells/ml in 200 μl complete RPMI, as above, in a flat bottom 96-well plate and cultured for 72 h. B cells were stimulated with anti-CD40 monoclonal antibody (10 μg/ml; BD), and T cells were stimulated with 5 μg/ml plate-bound anti-CD3 (BD), 5 μg/ml soluble anti-CD28 (BD). Tranilast, 3-HAA, or vehicle (DMSO) were incubated at concentrations stated with the cultures. 48 hours after stimulation, 100 μl culture medium was collected, and cells were pulsed with 1 μCi ^3H thymidine per well for 18 h. Cells were then harvested and plates assessed for incorporation. Each assay was performed on a minimum of 3 occasions. Data shown is of one representative experiment, and is expressed as mean+/−SD of triplicate in culture. IFN-γ, IL-10 and IL-5 levels was assessed in the culture medium by ELISA, as above.

SMILES: COc1ccc(/C=C/C(=O)Nc2ccccc2C(=O)O)cc1OC [Tranilast, 2-[[3-(3,4-dimethoxyphenyl)-1-oxo-2-propenyl]amino]benzoic acid]
- Histological score (mean ± SE) ([1]; 100 mg/kg/day i.p.): 1.64 ± 0.35
- Histological score (mean ± SE) ([1]; 200 mg/kg/day i.p.): 1.19 ± 0.35
- Histological score (mean ± SE) ([1]; 400 mg/kg/day i.p.): 0.57 ± 0.20
- clinical scores ([1]; 100, 200 or 400 mg/kg/day i.p., 10 days (FIG. 1)): reduced clinical scores in a dose-dependent fashion
- paw-swelling ([1]; 100, 200 or 400 mg/kg/day i.p., 10 days (FIG. 2)): reduced paw-swelling in a dose-dependent fashion
- synovitis, cartilage loss and bone erosion (histology) ([1]; compared to control mice, end of 10 day treatment): reduced level of synovitis, cartilage loss and bone erosion
- inhibition at 100 µg/mL [2]: 75%
- levels of anti-type II collagen IgG1 and IgG2a in sera [3]: no differences were observed
- IFN-γ production by T-cells ([4]; FIG. 10C): dose-dependently reduced
- IL-10 production by T-cells ([4]; FIG. 10D): dose-dependently inhibited
- IL-5 production by T-cells ([4]; FIG. 10E): dose-dependently inhibited
